Results taken from patent US6509163B1, “Methods of screening modulators of mammalian P2X7 purinergic receptors” (Glaxo Group Limited, priority 1997, dated 2003).
Where two headings read alike, the source gives them in different places.

Tests used:
Type in all cases: cell-based
[1] = target: T1, P2X7ΔC receptor (Rattus norvegicus, UniProt Q64663); experiment: Whole-cell recordings in HEK293 cells transiently transfected with P2X7ΔC cDNA; settings: 30 μM BzATP, normal solution, holding potential −70 mV, transiently transfected HEK cells, n=18
T1 construct: the resulting protein (P2X7ΔC) was P2X7 (1-418); expressed in transfected cells; host or cells: HEK293 (transient)
T1 sequence (Q64663 1-418): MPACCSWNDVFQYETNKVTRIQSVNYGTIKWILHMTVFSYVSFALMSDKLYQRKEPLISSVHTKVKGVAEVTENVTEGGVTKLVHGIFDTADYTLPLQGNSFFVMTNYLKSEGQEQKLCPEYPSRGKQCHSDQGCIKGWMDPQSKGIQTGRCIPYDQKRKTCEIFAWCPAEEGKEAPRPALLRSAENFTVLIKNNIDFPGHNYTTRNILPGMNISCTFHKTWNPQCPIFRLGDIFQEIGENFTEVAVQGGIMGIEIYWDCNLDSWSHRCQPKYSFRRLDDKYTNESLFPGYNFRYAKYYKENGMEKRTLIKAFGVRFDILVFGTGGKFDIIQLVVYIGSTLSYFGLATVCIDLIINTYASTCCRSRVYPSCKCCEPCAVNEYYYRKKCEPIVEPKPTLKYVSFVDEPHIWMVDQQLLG
From the text: A 440-base pair (bp) fragment of P2X7 was amplified with inosine-containing degenerate oligonucleotides from several peripheral autonomic ganglia (Buell et al, EMBO J. 15:55 (1996)). […] An additional 468 bp of 5′ cDNA was cloned by rapid amplification of cDNA ends-polymerase chain reaction (RACE-PCR; Life Technologies, Bethesda, MD) using poly(A)^+ RNA from the medial habenula. P2X7 receptor-specific sequences were amplified with two rounds of nested PCR, for which sense primers were […] and […] and antisense primers were […] and […]. A shared restriction site (Bgl II) permitted ligation of the RACE-PCR product and of the partial cDNA, yielding a construct that encoded the entire P2X7 protein. This chimera (GenBank accession number X95882) was expressed in pcDNA3 (Invitrogen, San Diego, Calif.), sequenced by fluorescent DNA sequencing (Perkin Elmer, Foster City, Calif.), and confirmed by isolation of other full-length P2X7 cDNAs from a rat brain cDNA library (Clontech, Palo Alto, Calif.). One of these included a stop codon 130 bp upstream from the ATG. The COOH-terminus was removed by excision of a Xcm I-Not I fragment, and the resulting protein (P2X7ΔC) was P2X7 (1-418). […]

[2] = target: T2, P2X7 receptor (Rattus norvegicus, UniProt Q64663); experiment: Whole-cell recordings of agonist-evoked currents in HEK293 cells transfected with rat P2X7 cDNA (Example 2); settings: inward currents, brief application (0.5 to 2 s)
T2 construct: yielding a construct that encoded the entire P2X7 protein; expressed in transfected cells
T2 sequence (Q64663 1-595): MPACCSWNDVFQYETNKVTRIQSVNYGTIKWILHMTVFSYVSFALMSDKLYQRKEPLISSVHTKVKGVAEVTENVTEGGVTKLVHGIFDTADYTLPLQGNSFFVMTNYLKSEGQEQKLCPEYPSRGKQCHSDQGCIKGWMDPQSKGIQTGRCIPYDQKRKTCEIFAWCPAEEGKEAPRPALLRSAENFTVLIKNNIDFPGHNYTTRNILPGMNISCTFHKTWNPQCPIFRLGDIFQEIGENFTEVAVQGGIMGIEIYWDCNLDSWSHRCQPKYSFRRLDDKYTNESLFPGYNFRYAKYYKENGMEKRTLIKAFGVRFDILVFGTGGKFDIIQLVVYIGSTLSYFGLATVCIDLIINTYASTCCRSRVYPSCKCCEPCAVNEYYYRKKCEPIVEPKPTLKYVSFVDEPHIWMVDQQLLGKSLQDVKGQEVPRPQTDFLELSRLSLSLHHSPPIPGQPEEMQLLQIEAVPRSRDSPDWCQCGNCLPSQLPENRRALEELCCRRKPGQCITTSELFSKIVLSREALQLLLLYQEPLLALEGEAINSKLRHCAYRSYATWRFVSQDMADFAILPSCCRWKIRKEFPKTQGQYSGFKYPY

[3] = target: T2, P2X7 receptor; experiment: as above; settings: for EC50: read-out: EC50 (half-maximal concentration) for current
Experimental: Whole-cell recordings were obtained at room temperature from HEK293 cells transiently or stably transfected with P2X7 cDNA, from HEK293 cells transiently transfected with P2X7ΔC cDNA, and from J774A.1 cells (American Type Culture Collection, Rockville, Md.). Agonist were applied for periods of 1 to 3 s by a fast-flow U-tube delivery system (Fenwick et al, J. Physiol. (London) 331:577 (1982)). The internal pipette solution was 140 mM cesium-aspartate or potassium-aspartate, 20 mM NaCl, 10 mM EGTA, and 5 mM Hepes: normal external solution was 145 mM NaCl, 2 mM KCl, 2 mM CaCl2, 1 mM MgCl2, 10 mM Hepes, and 12 mM glucose. Low divalent external solution was nominally magnesium-free with 0.3 mM CaCl2. For cells expressing P2X7 receptors and J774 cells, concentration-response curves were constructed in low divalent solution by recording currents in response to 1-s applications of agonist at 8-min intervals with normal external solution present for 6 min before each application. This protocol was necessary to prevent the development of sustained inward currents. Lipofectin was used for transfection (Buell et al, EMBO J. 15:55 (1996)).
Reversal potentals (Erev) were obtained by application of ATP (300 μM) or BzATP (30 μM) while the membrane was held at various potentals or by application of voltage ramps from −120 to 30 or 50 mV. Permeability ratios from (Erev) were calculated by first computing α (=Pna/PK, where P is permeability) for internal (i) and external (o) concentrations [Na]i=20 mM, [Na]o=145 mM, [Ko]=0 mM, and [K]i=140 mM from α={[145/exp(Erev)F/RT −20]}/140 (where F is the Faraday, R is the gas constant, and T is the absolute temperature). Other PK/PNa values, when [X]o=145 mM, [Na]i=20 mM, [K]i=140 mM, and [Na]o=[K]o=[X]i=0 mM, were computed from PK/PNa={[exp (ErevF/RT) (20=140α)}/145. In order of size (FIG. 3C), X was cesium, methylamine, tris(hydroxymethyl)-aminomethane, tetraethylammonium, and N-methyl-D-glucamine. The internal solution also contained 10 mM EGTA and 5 mM Hepes. External solutions also contained 10 mM glucose and normal or low concentrations of divalent cations; pH was maintained at 7.3 with HCl, histidine, or Hepes as required, and the osmolarity of all solutions was 295 to 315.

Current amplitude (mean±SEM) to BzATP [1]: 590±95 pA | agonist order of potency [2]: BzATP>>ATP>2MeSATP>ATP-γ-S>>ADP | Current amplitude (mean±SEM) to BzATP ([3]; 30 μM BzATP, normal solution, holding potential −70 mV, transiently transfected HEK cells, n=18): 636±118 pA | EC50 ([3]; normal solution (2 mM CaCl2, 1 mM MgCl2), n=4): 7 ± 2 µM | EC50 ([3]; zero magnesium, n=7): 3.7 ± 0.7 µM
Compound: Nc1ncnc2c1ncn2[C@@H]1O[C@H](COP(=O)(O)OP(=O)(O)OP(=O)(O)O)[C@@H](OC(=O)c2ccc(C(=O)c3ccccc3)cc2)[C@H]1O [BzATP, 3′-O-(4-benzoyl)benzoyl ATP]
